Laboratory results: patent publication US8691815B2, “Substituted oxindole derivatives, drugs containing said derivatives and the use thereof” (AbbVie Deutschland GmbH & Co. KG, priority 2005, dated 2014)
Counter-ions that a name gives are not always drawn. Each block holds one compound with its values, some of them ahead of it.

Biological target: T1, human vasopressin V1b receptor (Homo sapiens, UniProt P47901)
T1 construct: expressed in transfected cells; host or cells: CHO-K1 (cell line hV1b-3H2_CHO), membrane preparation
T1 sequence (P47901 1-424): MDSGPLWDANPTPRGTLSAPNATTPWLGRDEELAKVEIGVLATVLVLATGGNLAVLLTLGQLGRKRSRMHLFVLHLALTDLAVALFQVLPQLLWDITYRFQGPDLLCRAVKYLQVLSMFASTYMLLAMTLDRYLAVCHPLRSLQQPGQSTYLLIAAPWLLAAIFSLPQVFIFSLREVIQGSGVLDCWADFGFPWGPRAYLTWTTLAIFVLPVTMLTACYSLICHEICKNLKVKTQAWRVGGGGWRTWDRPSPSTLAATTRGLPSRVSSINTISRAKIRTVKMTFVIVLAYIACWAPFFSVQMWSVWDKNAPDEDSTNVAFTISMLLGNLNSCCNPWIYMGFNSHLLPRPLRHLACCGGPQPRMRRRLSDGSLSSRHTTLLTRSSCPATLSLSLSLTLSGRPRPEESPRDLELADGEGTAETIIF
Assay: Vasopressin V1b receptor binding assay
Conditions: membranes from CHO-K1 cells with stably expressed human V1b receptors, displacement of 1.5 nM 3H-AVP
Description: Vasopressin V1b Receptor Binding Assay:
The test substances were dissolved in a concentration of 10^−2 M in DMSO (dimethyl sulfoxide) and further diluted to 5×10^−4 M to 5×10^−9 M in DMSO. This series of DMSO predilutions was diluted 1:10 with assay buffer. The substance concentration was again diluted 1:5 in the assay mixture (2% DMSO in the mixture).
The membrane pellet was again homogenized and centrifuged as described and then taken up in 50 mM Tris-HCl, pH 7.4, homogenized and stored in aliquots frozen in liquid nitrogen at −190° C.
The incubation buffer was: 50 mM Tris, 10 mM MgCl2, 0.1% BSA, pH 7.4.
The nonspecific binding was determined with 1 uM AVP (Bachem # H1780). All determinations were carried out as triplicate determinations. After incubation (60 minutes at room temperature), the free radioligand was removed by vacuum filtration (Skatron cell harvester 7000) through Whatman GF/B glass fiber filter mats, and the filters were transferred into scintillation vials. The liquid scintillation measurement took place in a Tricarb model 2000 or 2200CA instrument (Packard). Conversion of the measured cpm into dpm was carried out with the aid of a standard quench series.
The binding parameters were calculated by nonlinear regression in SAS.

Compound: COc1cc(CN2CCNCC2)ccc1C1(N2CCC[C@H]2C(=O)N(C)C)C(=O)N(S(=O)(=O)c2ccc(C#N)cc2)c2ccc(Cl)cc21 (stereo partly drawn) [Example 82, (S)-1-[5-Chloro-1-(4-cyanobenzenesulfonyl)-3-(2-methoxy-4-piperazin-1-ylmethyl-phenyl)-2-oxo-2,3-dihydro-1H-indol-3-yl]pyrrolidine-2-dimethylcarboxamide, trifluoroacetic acid salt]
Ki: < 1 nM

Compound: COc1cc(CN(C)C)ccc1C1(N2CCC[C@H]2C(=O)N(C)C)C(=O)N(S(=O)(=O)c2ccc(F)cc2)c2ccc(Cl)cc21 (stereo partly drawn) [Example 73, (S)-1-[5-Chloro-3-(4-dimethylaminomethyl-2-methoxyphenyl)-1-(4-fluorobenzene-sulfonyl)-2-oxo-2,3-dihydro-1H-indol-3-yl]pyrrolidine-2-dimethylcarboxamide, trifluoroacetic acid salt]
Ki: 1 to 10 nM

Ki: 1 to 10 nM
Compound: COc1ccc(S(=O)(=O)N2C(=O)C(c3ccc(CN4CCCCC4)cc3OC)(N3CCC[C@H]3C(=O)N(C)C)c3cc(Cl)ccc32)c(OC)c1 (single isomer, unassigned) [Example 8]

Ki: 1 to 10 nM
Compound: COc1ccc(S(=O)(=O)N2C(=O)C(c3ccc(CN(C)C)cc3OC)(N3CCC[C@H]3C(=O)N(C)C)c3cc(Cl)ccc32)c(OC)c1 (stereo partly drawn) [Example 7, (S)-1-[5-Chloro-1-(2,4-dimethoxybenzenesulfonyl)-3-(4-dimethylaminomethyl-2-methoxyphenyl)-2-oxo-2,3-dihydro-1H-indol-3-yl]-pyrrolidin-2-dimethylcarboxamide]

Compound: COCCN(C)Cc1ccc(OC)c(C2(N3CCC[C@H]3C(=O)N(C)C)C(=O)N(S(=O)(=O)c3ccc(OC)cc3)c3ccc(Cl)cc32)c1 (stereo partly drawn) [Example 32, (S)-1-[5-Chloro-1-(4-methoxybenzenesulfonyl)-3-(2-methoxy-5-{[(2-methoxyethyl)-methylamino]methyl}phenyl)-2-oxo-2,3-dihydro-1H-indol-3-yl]-pyrrolidine-2-dimethyl-carboxamide, trifluoroacetic acid salt]
Ki: < 1 nM

Compound: COc1cc(CN2CCOCC2)ccc1C1(N2CCC[C@H]2C(=O)N(C)C)C(=O)N(S(=O)(=O)c2ccc(F)cc2)c2ccc(Cl)cc21 (stereo partly drawn) [Example 77, (S)-1-[5-Chloro-1-(4-fluorobenzenesulfonyl)-3-(2-methoxy-4-morpholin-4-ylmethyl-phenyl)-2-oxo-2,3-dihydro-1H-indol-3-yl]pyrrolidine-2-dimethylcarboxamide, trifluoroacetic acid salt]
Ki: 10 to 100 nM

Compound: COc1ccc(S(=O)(=O)N2C(=O)C(c3cc(CN(C)CCN(C)C)ccc3OC)(N3CCC[C@H]3C(=O)N(C)C)c3cc(Cl)ccc32)cc1 (stereo partly drawn) [Example 22, (S)-1-[5-Chloro-3-(5-{[(2-dimethylaminoethyl)methylamino]methyl}-2-methoxy-phenyl)-1-(4-methoxybenzenesulfonyl)-2-oxo-2,3-dihydro-1H-indol-3-yl]pyrrolidine-2-dimethylcarboxamide, trifluoroacetic acid salt]
Ki: < 1 nM

Compound: COc1cc(CN2CCCC2)ccc1C1(N2CCC[C@H]2C(=O)N(C)C)C(=O)N(S(=O)(=O)c2ccc(C#N)cc2)c2ccc(Cl)cc21 (stereo partly drawn) [Example 5, (S)-1-[5-Chloro-1-(4-cyanobenzenesulfonyl)-3-(2-methoxy-4-pyrrolidin-1-ylmethyl-phenyl)-2-oxo-2,3-dihydro-1H-indol-3-yl]pyrrolidine-2-dimethylcarboxamide, trifluoroacetic acid salt]
Ki: < 1 nM

Compound: COc1ccc(S(=O)(=O)N2C(=O)C(c3ccc(CN4CCNCC4)cc3OC)(N3CCC[C@H]3C(=O)N(C)C)c3cc(Cl)ccc32)cc1 (stereo partly drawn) [Example 79, (S)-1-[5-Chloro-1-(4-methoxybenzenesulfonyl)-3-(2-methoxy-4-piperazin-1-yl-methylphenyl)-2-oxo-2,3-dihydro-1H-indol-3-yl]pyrrolidine-2-dimethylcarboxamide, trifluoroacetic acid salt]
Ki: < 1 nM

Compound: COc1ccc(S(=O)(=O)N2C(=O)C(c3ccc(CN4CCOCC4)cc3OC)(N3CCC[C@H]3C(=O)N(C)C)c3cc(Cl)ccc32)cc1 (stereo partly drawn) [Example 71, (S)-1-[5-Chloro-1-(4-methoxybenzenesulfonyl)-3-(2-methoxy-4-morpholin-4-yl-methylphenyl)-2-oxo-2,3-dihydro-1H-indol-3-yl]pyrrolidine-2-dimethylcarboxamide, trifluoroacetic acid salt]
Ki: < 1 nM

Ki: 10 to 100 nM
Compound: COc1ccc(S(=O)(=O)N2C(=O)C(c3ccc(CN4CCCC4)cc3)(N3C[C@H](O)C[C@H]3C(=O)N(C)C)c3cc(Cl)ccc32)c(OC)c1 (stereo partly drawn) [Example 6, (2S,4R)-1-[5-Chloro-1-(2,4-dimethoxybenzenesulfonyl)-2-oxo-3-(4-pyrrolidin-1-yl-methylphenyl)-2,3-dihydro-1H-indol-3-yl]-4-hydroxypyrrolidine-2-dimethylcarboxamide]

Compound: COc1ccc(S(=O)(=O)N2C(=O)C(c3ccc(CN(C)C(C)C)cc3OC)(N3CCC[C@H]3C(=O)N(C)C)c3cc(Cl)ccc32)cc1 (stereo partly drawn) [Example 88, (S)-1-[5-Chloro-3-{4-[(isopropylmethylamino)methyl]-2-methoxyphenyl}-1-(4-methoxy-benzenesulfonyl)-2-oxo-2,3-dihydro-1H-indol-3-yl]pyrrolidine-2-dimethylcarboxamide, trifluoroacetic acid salt]
Ki: < 1 nM

Compound: CCNCc1ccc(C2(N3CCC[C@H]3C(=O)N(C)C)C(=O)N(S(=O)(=O)c3ccc(OC)cc3)c3ccc(Cl)cc32)c(OC)c1 (stereo partly drawn) [Example 93, (S)-1-[5-Chloro-3-(4-ethylaminomethyl-2-methoxyphenyl)-1-(4-methoxybenzene-sulfonyl)-2-oxo-2,3-dihydro-1H-indol-3-yl]pyrrolidine-2-dimethylcarboxamide, trifluoroacetic acid salt]
Ki: < 1 nM

Compound: COc1ccc(CN(C)C)cc1C1(N2CCC[C@H]2C(=O)N(C)C)C(=O)N(S(=O)(=O)c2ccc(F)cc2)c2ccc(Cl)cc21 (stereo partly drawn) [Example 98, (S)-1-[5-Chloro-3-(5-dimethylaminomethyl-2-methoxyphenyl)-1-(4-fluorobenzene-sulfonyl)-2-oxo-2,3-dihydro-1H-indol-3-yl]pyrrolidine-2-dimethylcarboxamide, trifluoroacetic acid salt]
Ki: 1 to 10 nM

Compound: COCCN(C)Cc1ccc(C2(N3CCC[C@H]3C(=O)N(C)C)C(=O)N(S(=O)(=O)c3ccc(OC)cc3)c3ccc(Cl)cc32)c(OC)c1 (stereo partly drawn) [Example 89, (S)-1-[5-Chloro-1-(4-methoxybenzenesulfonyl)-3-(2-methoxy-4-{[(2-methoxyethyl)-methylamino]methyl}phenyl)-2-oxo-2,3-dihydro-1H-indol-3-yl]pyrrolidine-2-dimethyl-carboxamide, trifluoroacetic acid salt]
Ki: < 1 nM

Compound: COc1cc(CN2CCCC2)ccc1C1(N2CCC[C@H]2C(=O)N(C)C)C(=O)N(S(=O)(=O)c2ccc(F)cc2)c2ccc(Cl)cc21 (stereo partly drawn) [Example 3, (S)-1-[5-Chloro-1-(4-fluorobenzenesulfonyl)-3-(2-methoxy-4-pyrrolidin-1-ylmethyl-phenyl)-2-oxo-2,3-dihydro-1H-indol-3-yl]pyrrolidine-2-dimethylcarboxamide, trifluoroacetic acid salt]
Ki: 1 to 10 nM

Compound: COc1ccc(S(=O)(=O)N2C(=O)C(c3cc(CN4CCOCC4)ccc3OC)(N3CCC[C@H]3C(=O)N(C)C)c3cc(Cl)ccc32)cc1 (stereo partly drawn) [Example 21, (S)-1-[5-Chloro-1-(4-methoxybenzenesulfonyl)-3-(2-methoxy-5-morpholin-4-yl-methylphenyl)-2-oxo-2,3-dihydro-1H-indol-3-yl]pyrrolidine-2-dimethylcarboxamide, trifluoroacetic acid salt]
Ki: < 1 nM

Compound: COc1ccc(S(=O)(=O)N2C(=O)C(c3ccc(CN(C)C)cc3OC)(N3CCC[C@H]3C(=O)N(C)C)c3ccccc32)cc1 (stereo partly drawn) [Example 90, (S)-1-[3-(4-Dimethylaminomethyl-2-methoxyphenyl)-1-(4-methoxybenzenesulfonyl)-2-oxo-2,3-dihydro-1H-indol-3-yl]pyrrolidine-2-dimethylcarboxamide, trifluoroacetic acid salt]
Ki: 10 to 100 nM

Compound: (S)-1-[3-(4-Aminomethyl-2-methoxyphenyl)-5-chloro-1-(4-cyanobenzenesulfonyl)-2-oxo-2,3-dihydro-1H-indol-3-yl]pyrrolidine-2-dimethylcarboxamide, trifluoroacetic acid salt [Example 76]
Ki: 1 to 10 nM

Compound: CNCc1ccc(OC)c(C2(N3CCC[C@H]3C(=O)N(C)C)C(=O)N(S(=O)(=O)c3ccc(C#N)cc3)c3ccc(Cl)cc32)c1 (stereo partly drawn) [Example 102, (S)-1-[5-Chloro-1-(4-cyanobenzenesulfonyl)-3-(2-methoxy-5-methylaminomethyl-phenyl)-2-oxo-2,3-dihydro-1H-indol-3-yl]pyrrolidine-2-dimethylcarboxamide, trifluoroacetic acid salt]
Ki: 1 to 10 nM
